From US20090036495A1, “Combinations Comprising Alpha-2-Delta Ligands and Ep4 Receptor Antagonists” (Pfizer, Inc., priority 2004, published 2009) come the findings set out here.

For this experiment, the system named is Male Sprague-Dawley rats. Description: Carrageenan-induced mechanical hyperalgesia (CIMH), paw withdrawal threshold. The format is in vivo. Conditions: rat, per orally. The protocol: Carrageenan-induced mechanical hyperalgesia (CIMH)[1] is utilized to evaluate analgesic activity of drugs against acute inflammatory pain.
1% carrageenan is prepared at least two days before use. An appropriate amount of λ-carrageenain is weighed into a 10 ml screw vial. Sterile saline is added to make 1% (w/v) suspension solution and the suspension is stirred for 8 hours with gentle heating to be dissolved obtain homogeneous suspension.
Male Sprague-Dawley rats, 4 W (Japan SLC or Charles River Japan), 100-130 g are used. Environment conditions are controlled at a 12-h light/dark cycle with (lights on 076:00 a.m.). and an ambient temperature of 23+/−2 deg. C. Prior to start the experiment, animals are housed under this condition for 4-5 days. Each group is used a group of 6-8 rats. The rats are fasted for 16-18 hours before use and the rats are trained for measurement of mechanical threshold using the apparatus for two days before use.
The paw withdrawal response of the rat to increased pressure on a right hindpaw is recorded as mechanical threshold. The threshold is defined as “pre value”. Hyperalgesia is induced by intraplantar injection of 0.1 ml of 1% carrageenain in the right hindpaw. The paw withdrawal threshold is measured at 3.5 and 4.5 hours after the carrageenan injection. Rats are randomly grouped by the paw withdrawal threshold at 4.5 hours and pre value after the carrageenan injection. Vehicle or test compounds (10 ml of 0.1% methylcellulose/1 kg body weight) are given per orally at 5.5 hours after the carrageenain injection. The paw withdrawal Mechanical threshold is measured by an analgesy meter at 4, 5, 6.5 and 7.5 hours after the carrageenin carrageenan injection. The threshold at 6.5 or 7.5 hours is determined as ‘post value’.
% change in threshold=(preost value−postre value)/(pre value)×100% inhibition=(B−A)/(C−A)×100
A=average of % change in threshold post values in disease control (vehicle treated) group B=average of % change in threshold post values in compound treated group C=average of pre values of all rats used
% inhibition=(A−B)/|A|×100
The data is analyzed with unpaired t-test or one-way ANOVA (plus multiple comparison test) for % change in thresholdpost values. Results are considered significant when p<0.05 versus disease control group.

Regarding `CC(C)C[C@H](CN)CC(=O)O` [Pregabalin, (S)-(+)-4-amino-3-(2-methylpropyl)butanoic acid], the “Inhibition (%) 2 hours post dosing” value (dose 3 mg/kg) worked out at 1.6%, the “Inhibition (%) 2 hours post dosing” value (dose 10 mg/kg) amounted to 8.4%, the “Inhibition (%) 2 hours post dosing” value (dose 30 mg/kg) is given as 16.4% and the “Inhibition (%) 2 hours post dosing” value (dose 100 mg/kg) worked out at 31%.
For the compound `C[C@H](NC(=O)c1cc(Cl)cnc1Oc1cccc(F)c1)c1ccc(C(=O)O)cc1` [4-[(1S)-1-({[5-chloro-2-(3-fluorophenoxy)pyridin-3-yl]carbonyl}amino)ethyl]benzoic acid], the “Inhibition (%) 2 hours post dosing” value is, setting by setting: (dose 0.3 mg/kg) 19.2%; (dose 1 mg/kg) 41.9%; (dose 3 mg/kg) 50%.
